Test results from paper PMC11094793, “Discovery of LLC0424 as a Potent and Selective in Vivo NSD2 PROTAC Degrader” (Journal of Medicinal Chemistry, 2024).
Where two headings read alike, the source gives them in different places.

Legend:
NSD2 [1] = molecular target: T1, NSD2 (Homo sapiens, UniProt O96028); assay: Compound screening: NSD2 degradation by immunoblotting in VCaP cells; details: VCaP, 24 h
T1 sequence (O96028 1-1365): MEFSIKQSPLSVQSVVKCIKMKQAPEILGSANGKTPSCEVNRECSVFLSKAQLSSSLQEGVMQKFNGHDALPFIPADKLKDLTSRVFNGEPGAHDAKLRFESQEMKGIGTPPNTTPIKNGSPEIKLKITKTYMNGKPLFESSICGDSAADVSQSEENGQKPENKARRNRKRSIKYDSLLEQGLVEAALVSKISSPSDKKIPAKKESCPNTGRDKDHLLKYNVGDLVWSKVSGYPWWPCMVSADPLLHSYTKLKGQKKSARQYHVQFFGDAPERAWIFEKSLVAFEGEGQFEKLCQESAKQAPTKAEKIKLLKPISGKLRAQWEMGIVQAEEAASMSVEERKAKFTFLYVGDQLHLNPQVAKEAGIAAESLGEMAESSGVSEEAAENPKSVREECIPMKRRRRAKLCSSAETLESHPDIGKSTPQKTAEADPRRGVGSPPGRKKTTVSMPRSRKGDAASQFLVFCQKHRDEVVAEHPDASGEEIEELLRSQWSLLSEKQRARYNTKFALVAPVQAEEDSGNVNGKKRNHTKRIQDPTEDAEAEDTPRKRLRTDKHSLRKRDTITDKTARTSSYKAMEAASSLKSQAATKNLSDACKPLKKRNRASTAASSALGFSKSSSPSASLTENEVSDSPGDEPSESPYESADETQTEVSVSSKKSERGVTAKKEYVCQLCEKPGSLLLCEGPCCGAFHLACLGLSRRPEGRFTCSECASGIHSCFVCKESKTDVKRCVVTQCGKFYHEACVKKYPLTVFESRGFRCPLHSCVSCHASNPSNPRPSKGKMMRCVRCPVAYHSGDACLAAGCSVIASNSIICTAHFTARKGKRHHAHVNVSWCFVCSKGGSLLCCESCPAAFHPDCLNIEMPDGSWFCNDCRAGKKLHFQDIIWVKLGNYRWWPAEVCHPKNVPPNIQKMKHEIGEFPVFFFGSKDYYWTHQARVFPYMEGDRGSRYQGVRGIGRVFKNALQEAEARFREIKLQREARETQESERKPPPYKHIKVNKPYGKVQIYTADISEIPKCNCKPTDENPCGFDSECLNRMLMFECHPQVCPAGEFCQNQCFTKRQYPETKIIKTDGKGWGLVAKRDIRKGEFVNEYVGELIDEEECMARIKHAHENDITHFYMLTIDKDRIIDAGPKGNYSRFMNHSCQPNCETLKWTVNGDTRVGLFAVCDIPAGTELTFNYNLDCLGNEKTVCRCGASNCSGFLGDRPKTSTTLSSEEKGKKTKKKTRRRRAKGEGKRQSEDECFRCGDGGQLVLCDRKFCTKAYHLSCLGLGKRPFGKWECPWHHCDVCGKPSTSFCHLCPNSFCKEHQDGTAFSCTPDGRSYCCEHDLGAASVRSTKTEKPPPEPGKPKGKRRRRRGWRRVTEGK
Experimental: After treatment, the cultured cells were collected and rinsed with phosphate-buffered saline (PBS) in room temperature. The cells were treated with RIPA buffers (ThermoFisher Scientific) supplemented with Halt Protease and Phosphatase Inhibitor Cocktail (ThermoFisher Scientific). After sonication and centrifugation, the total amount of protein in the cell lysates was measured by Pierce Bovine Serum Albumin Standard Pre-Diluted Set (ThermoFisher Scientific). […] After incubated with HRP-conjugated secondary antibodies, the membranes were developed with ECL Prime Western Blotting Detection Reagent (cytiva) and imaged on Odyssey Fc Imager (LiCOR Biosciences).
Western blot was then performed as previously described to detect NSD2 degradation.

NSD2 [2] = molecular target: T1, NSD2; assay: Pharmacodynamic assessment in 22RV1 xenograft model; type: in vivo, mice; design: from tissue; host or cells: 22RV1 subcutaneous xenograft tumours in CB17 SCID mice; details: 5 consecutive days
Experimental: We finally performed pharmacodynamic assessment of LLC0424 in both the SEM and 22RV1 xenograft model. Based on the solubility of LLC0424 and the tolerance of the mice, we chose 60 mg/kg as the dosage for the pharmacodynamic study. LLC0424 was administrated by intravenous (iv) or intraperitoneal (ip) injection at a dose of 60 mg/kg for 5 consecutive days. The tumor tissues were harvested at day 5 and subjected to histology and Western blot analysis (Figure 7A, and SI, Figure S6A).
First, 6–8 weeks old male CB17 severe combined immunodeficiency (SCID) mice were procured from the University of Michigan breeding colony. Subcutaneous tumors were established at both sides of the dorsal flank of mice. Tumors were measured at least biweekly using digital calipers following the formula (π/6) (L × W2), where L is length and W is width of the tumor. At the end of the studies, mice were sacrificed and tumors extracted. For each tumor, a part is […] followed by embedding in paraffin to make tissue blocks. The blocks were sectioned at […] for immunohistochemistry analysis. Another part is made into tissue lysates for Western blotting analysis. The University of Michigan Institutional Animal Care and Use Committee (IACUC) approved all in vivo studies. […]

Dmax at 2 µM (NSD2 [1]; read-out: 2.0 μM Degradation % (VCaP)): 95%
Dmax at 2 µM (NSD2 [1]; read-out: % Degradation): 95%
NSD2 level in tumor tissue (NSD2 [2]; 60 mg/kg iv or ip, versus vehicle): significantly downregulated
NSD2 degradation, iv versus ip administration (NSD2 [2]; 60 mg/kg): comparable level of NSD2 degradation
Structure (SMILES): O=C1CCC(N2C(=O)c3ccc(N4CCC(NC(=O)c5ccc(NC(=O)c6ccc(CN(C(=O)c7ccc8c(c7)OCC(=O)N8)C7CC7)cc6)cc5)CC4)cc3C2=O)C(=O)N1 (stereo not shown) [compound 10l, N-Cyclopropyl-N-(4-((4-((1-(2-(2,6-dioxopiperidin-3-yl)-1,3-dioxoisoindolin-5-yl)piperidin-4-yl)carbamoyl)phenyl)carbamoyl)benzyl)-3-oxo-3,4-dihydro-2H-benzo[b][1,4]oxazine-7-carboxamide]
